In paper PMC8212739 (Clinical and Translational Science, 2021):

What was measured:
[1] = system: PHHs in sandwich cultures; test: Albumin production, hepatotoxicant sensitivity, sandwich cultures; format: cell-based; settings: Homo sapiens, 48 h, read-out: EC50, albumin secretion
PHHs in spheroids [2] = test: LDH production, hepatotoxicant sensitivity, spheroids; format: cell-based; settings: Homo sapiens, 48 h, read-out: EC50, LDH production
in vitro [3] = settings: human, primary human hepatocytes (PHHs) in 2D sandwich cultures
[4] = system: PHHs in sandwich cultures; test: LDH production, hepatotoxicant sensitivity, sandwich cultures; format: cell-based; settings: Homo sapiens, 48 h, read-out: EC50, LDH production
CYP3A4 [5] = test: in vitro; settings: human, primary human hepatocytes (PHHs) cultured in liver MPS
PHHs in liver MPS [6] = test: Albumin production, hepatotoxicant sensitivity, liver MPS; format: cell-based; settings: Homo sapiens, 48 h, read-out: EC50, albumin secretion
PHHs in spheroids [7] = settings: spheroids vs liver MPS
in vitro [8] = settings: human, primary human hepatocytes (PHHs) cultured as 3D spheroids
PHHs in spheroids [9] = test: Albumin production, hepatotoxicant sensitivity, spheroids; format: cell-based; settings: Homo sapiens, 48 h, read-out: EC50, albumin secretion
PHHs in liver MPS [10] = test: LDH production, hepatotoxicant sensitivity, liver MPS; format: cell-based; settings: Homo sapiens, 48 h, read-out: EC50, LDH production
CYP3A4 [11] = test: in vitro; settings: human, primary human hepatocytes (PHHs) cultured as 3D spheroids
CYP3A4 [12] = test: in vitro; settings: human, primary human hepatocytes (PHHs) in 2D sandwich cultures
[13] = system: PHHs in sandwich cultures; settings: sandwich cultures vs liver MPS
PHHs in the liver MPS = test: Drug metabolism and phase II metabolites in the liver MPS
[14] = Stability of glucuronidated diclofenac in maintenance medium at 37°C; format: physicochemical; settings: 50 µM
[15] = cited from earlier work

Compound `C[C@H]1O[C@@H](O[C@H]2[C@@H](O)C[C@H](O[C@H]3[C@@H](O)C[C@H](O[C@H]4CC[C@@]5(C)[C@H](CC[C@@H]6[C@@H]5C[C@@H](O)[C@]5(C)[C@@H](C7=CC(=O)OC7)CC[C@]65O)C4)O[C@@H]3C)O[C@@H]2C)C[C@H](O)[C@@H]1O` [Digoxin, digoxin] has an EC50 [1] of 157 µM, an EC50 (PHHs in spheroids [2]) of 8.1 µM and an EC50 at 2 days (in vitro [3]) of 122 µM. The EC50 [4] was 102 µM, the EC50 at 48 h (CYP3A4 [5]) was […] and the EC50 (PHHs in liver MPS [6]) was 41.6 µM. For the same compound, the “R, Spearman correlation of CYP3A4 response relative to liver MPS” value (PHHs in spheroids [7]) was −0.04, the EC50 at 2 days (in vitro [8]) was 6.4 µM and the EC50 (PHHs in spheroids [9]) was 5.4 µM. The EC50 (PHHs in liver MPS [10]) was 146 µM, the EC50 at 48 h (CYP3A4 [11]) was […] and the EC50 at 48 h (CYP3A4 [12]) was […]. For the same compound, the “R, Spearman correlation of CYP3A4 response relative to liver MPS” value [13] was […].
For `CC/C(=C(\c1ccccc1)c1ccc(OCCN(C)C)cc1)c1ccccc1` [Tamoxifen, tamoxifen], the EC50 at 2 days (in vitro [3]) was 23.8 µM.
`Cc1c(C)c2c(c(C)c1O)CCC(C)(COc1ccc(CC3SC(=O)NC3=O)cc1)O2` (stereo not drawn) [Troglitazone, troglitazone] showed an EC50 [1] of 2.6 µM, an EC50 (PHHs in spheroids [2]) of 94.2 µM and an EC50 at 2 days (in vitro [3]) of 35.1 µM. For the same compound, the EC50 [4] was 77.7 µM, the EC50 at 48 h (CYP3A4 [5]) was […] and the EC50 (PHHs in liver MPS [6]) was 34.6 µM. The “R, Spearman correlation of CYP3A4 response relative to liver MPS” value (PHHs in spheroids [7]) was 0.80, the EC50 at 2 days (in vitro [8]) was 67.1 µM and the EC50 (PHHs in spheroids [9]) was 51.9 µM. For the same compound, the EC50 (PHHs in liver MPS [10]) was 407 µM, the “Extent of metabolism of parent in liver MPS medium” value (PHHs in the liver MPS; 50 and 100 µM, 48 h of incubation) was “almost completely metabolized” and the EC50 at 48 h (CYP3A4 [11]) was […]. For the same compound, the EC50 at 48 h (CYP3A4 [12]) was […] and the “R, Spearman correlation of CYP3A4 response relative to liver MPS” value [13] was 0.77.
In the case of `O=C(O)Cc1ccccc1Nc1c(Cl)cccc1Cl` [diclofenac], the “Concentration in liver MPS culture medium over time” value (PHHs in the liver MPS; 50 µM, 4, 8, 24 and 48 hours) is reported as “decrease over time”.
In the case of `O=C(Cc1ccccc1Nc1c(Cl)cccc1Cl)O[C@@H]1O[C@H](C(=O)O)[C@@H](O)[C@H](O)[C@H]1O` [glucuronidated diclofenac, diclofenac glucuronide], the “Detection in the MPS medium” value (PHHs in the liver MPS; after 48 h, diclofenac dosed) is reported as “not detected” and the “Time of incubation to become unstable in solution” value [14] is reported as no more than 2 h.
In the case of `C[C@H]1COc2c(N3CCN(C)CC3)c(F)cc3c(=O)c(C(=O)O)cn1c23` [levofloxacin], the Hepatotoxicity [15] is listed as “does not cause hepatotoxicity”.
For `N[C@@H]1[C@H]2CN(c3nc4c(cc3F)c(=O)c(C(=O)O)cn4-c3ccc(F)cc3F)C[C@@H]12` [trovafloxacin], the Hepatotoxicity in humans [15] is given as “induces idiosyncratic hepatotoxicity”.
